Test results published in patent US10179770B2, “Quinolines derivatives as novel anticancer agents” (GENOSCIENCE PHARMA, priority 2013, dated 2019).

Key:
Assay in all cases: NCI-60 screen (SRB)
Assay type in all cases: cell-based
RXF393 = RXF393 (Renal)
Procedure: (§1) The human tumor cell lines of the cancer screening panel are grown in RPMI 1640 medium containing 5% fetal bovine serum and 2 mM L-glutamine. For a typical screening experiment, cells are inoculated into 96 well microtiter plates in 100 μL at plating densities ranging from 5,000 to 40,000 cells/well depending on the doubling time of individual cell lines. After cell inoculation, the microtiter plates are incubated at 37° C., 5% CO2, 95% air and 100% relative humidity for 24 h prior to addition of experimental drugs.
(§2) After 24 h, two plates of each cell line are fixed in situ with TCA, to represent a measurement of the cell population for each cell line at the time of drug addition (Tz). Experimental drug is solubilized in dimethyl sulfoxide at 400-fold the desired final maximum test concentration and stored frozen prior to use. At the time of drug addition, an aliquot of frozen concentrate is thawed and diluted to twice the desired final maximum test concentration with complete medium containing 50 μg/ml gentamicin. Additional four, 10-fold or ½ log serial dilutions are made to provide a total of five drug concentrations plus control. Aliquots of 100 μl of these different drug dilutions are added to the appropriate microtiter wells already containing 100 μl of medium, resulting in the required final drug concentrations.
(§3) Following drug addition, the plates are incubated for an additional 48 h at 37° C., 5% CO2, 95% air, and 100% relative humidity. For adherent cells, the assay is terminated by the addition of cold TCA. Cells are fixed in situ by the gentle addition of 50 μl of cold 50% (w/v) TCA (final concentration, 10% TCA) and incubated for 60 minutes at 4° C. The supernatant is discarded, and the plates are washed five times with tap water and air dried. Sulforhodamine B (SRB) solution (100 μl) at 0.4% (w/v) in 1% acetic acid is added to each well, and plates are incubated for 10 minutes at room temperature. After staining, unbound dye is removed by washing five times with 1% acetic acid and the plates are air dried. Bound stain is subsequently solubilized with 10 mM trizma base, and the absorbance is read on an automated plate reader at a wavelength of 515 nm. For suspension cells, the methodology is the same except that the assay is terminated by fixing settled cells at the bottom of the wells by gently adding 50 μl of 80% TCA (final concentration, 16% TCA). Using the seven absorbance measurements [time zero, (Tz), control growth, (C), and test growth in the presence of drug at the five concentration levels (Ti)], the percentage growth is calculated at each of the drug concentrations levels.
(§4) Percentage growth inhibition is calculated as: [(Ti−Tz)/(C−Tz)]×100 for concentrations for which Ti>/=Tz (1) [(Ti−Tz)/Tz]×100 for concentrations for which Ti<Tz (2)
(§5) Growth inhibition of 50% (GI50) is calculated from [(Ti−Tz)/(C−Tz)]×100=50 (3)
(§6) which is the drug concentration resulting in a 50% reduction in the net protein increase (as measured by SRB staining) in control cells during the drug incubation.
(§7) The drug concentration resulting in total growth inhibition (TGI) is calculated from Ti=Tz (4)
(§8) The LC50 (concentration of drug resulting in a 50% reduction in the measured protein at the end of the drug treatment as compared to that at the beginning) indicating a net loss of cells following treatment is calculated from [(Ti−Tz)/Tz]×100=−50 (5)
(§9) Values are calculated for each of these three parameters if the level of activity is reached; however, if the effect is not reached or is exceeded, the value for that parameter is expressed as greater or less than the maximum or minimum concentration tested.

CCRF-CEM = CCRF-CEM (Leukemia)
Procedure: as §1, §2, §3, §4, §5, §6, §7, §8, §9

SK-OV3 = SK-OV3 (Ovarian)
Procedure: as §1, §2, §3, §4, §5, §6, §7, §8, §9

U251 = U251 (CNS)
Procedure: as §1, §2, §3, §4, §5, §6, §7, §8, §9

IGROVI = IGROVI (Ovarian)
Procedure: as §1, §2, §3, §4, §5, §6, §7, §8, §9

SF-295 = SF-295 (CNS)
Procedure: as §1, §2, §3, §4, §5, §6, §7, §8, §9

CAKI-1 = CAKI-1 (Renal)
Procedure: as §1, §2, §3, §4, §5, §6, §7, §8, §9

SW-620 = SW-620 (Colon)
Procedure: as §1, §2, §3, §4, §5, §6, §7, §8, §9

NCI-H226 = NCI-H226 (Non-Small Cell Lung)
Procedure: as §1, §2, §3, §4, §5, §6, §7, §8, §9

NCI-H522 = NCI-H522 (Non-Small Cell Lung)
Procedure: as §1, §2, §3, §4, §5, §6, §7, §8, §9

SF-539 = SF-539 (CNS)
Procedure: as §1, §2, §3, §4, §5, §6, §7, §8, §9

HOP-92 = HOP-92 (Non-Small Cell Lung)
Procedure: as §1, §2, §3, §4, §5, §6, §7, §8, §9

BT-549 = BT-549 (Breast)
Procedure: as §1, §2, §3, §4, §5, §6, §7, §8, §9

HOP-62 = HOP-62 (Non-Small Cell Lung)
Procedure: as §1, §2, §3, §4, §5, §6, §7, §8, §9

MDA-MB-468 = tested on: MDA-MB-468
Procedure: as §1, §2, §3, §4, §5, §6, §7, §8, §9

K-562 = K-562 (Leukemia)
Procedure: as §1, §2, §3, §4, §5, §6, §7, §8, §9

LOX IMVI = LOX IMVI (Melanoma)
Procedure: as §1, §2, §3, §4, §5, §6, §7, §8, §9

[1] = Homo sapiens, read-out: LC50 (the source's name)

CC(C)(C)NC1CCN(c2cc(-c3ccc(Cl)cc3)nc3ccccc23)CC1.Cl.Cl [XII-4, 2-(4-chloro-phenyl)-4-(4-N-tert-butylamino-piperidin-1-yl)quinoline dihydrochloride]
Growth percent at 10 μM (RXF393; 10 μM): +++ (cell growth 20 > % < 40)
Growth percent at 10 μM (CCRF-CEM): +++ (cell growth 20 > % < 40)
Growth percent at 10 μM (SK-OV3): − (cell growth % > 80)
Growth percent at 10 μM (U251): ++ (cell growth 40 > % < 60)
Growth percent at 10 μM (IGROVI): ++ (cell growth 40 > % < 60)
Growth percent at 10 μM (SF-295): − (cell growth % > 80)
Growth percent at 10 μM (CAKI-1): +++ (cell growth 20 > % < 40)
Growth percent at 10 μM (SW-620): ++++ (cell growth 0 > % < 20)
Growth percent at 10 μM (NCI-H226): − (cell growth % > 80)
Growth percent at 10 μM (NCI-H522): + (cell growth 60 > % < 80)
Growth percent at 10 μM (SF-539): ++ (cell growth 40 > % < 60)
Growth percent at 10 μM (HOP-92): ++ (cell growth 40 > % < 60)
Growth percent at 10 μM (BT-549): − (cell growth % > 80)
Growth percent at 10 μM (HOP-62): + (cell growth 60 > % < 80)
Growth percent at 10 μM (MDA-MB-468; MDA-MB-468 (Breast)): ×× (cell growth −20 < % > −40)
Growth percent at 10 μM (K-562): × (cell growth 0 < % > −20)
Growth percent at 10 μM (LOX IMVI): ++++ (cell growth 0 > % < 20)

CCN(CC)C1CCN(C(C)c2cc(-c3ccccc3)nc3ccccc23)CC1.Cl.Cl (stereo not drawn) [XIX-3, 2-phenyl-4-{1-[4-(N,N-diethylamino)piperidin-1-yl]-eth-1-yl}quinoline dihydrochloride]
GI50 (RXF393; Homo sapiens, RXF 393): 4 µM
CC50 (RXF393; Homo sapiens, RXF 393, read-out: LC50 (the source's name)): 17 µM
TGI (RXF393): 17 µM
TGI (CCRF-CEM): 25 µM
Growth percent at 10 μM (CCRF-CEM): ++ (cell growth 40 > % < 60)
GI50 (CCRF-CEM; Homo sapiens): 9 µM
CC50 (CCRF-CEM; [1]): 62 µM
GI50 (SK-OV3; Homo sapiens, SK-OV-3): 17 µM
LC50 (concentration killing 50% of cells) (SK-OV3; Homo sapiens, SK-OV-3): 59 µM
TGI (SK-OV3): 31 µM
Growth percent at 10 μM (SK-OV3): − (cell growth % > 80)
GI50 (U251; Homo sapiens, U-251): 6 µM
CC50 (U251; Homo sapiens, U-251, read-out: LC50 (the source's name)): 49 µM
TGI (U251): 20 µM
Growth percent at 10 μM (U251): +++ (cell growth 20 > % < 40)
GI50 (IGROVI; Homo sapiens): 5 µM
CC50 (IGROVI; [1]): 63 µM
TGI (IGROVI): 21 µM
Growth percent at 10 μM (IGROVI): ++ (cell growth 40 > % < 60)
GI50 (SF-295; Homo sapiens): 4 µM
CC50 (SF-295; [1]): 48 µM
TGI (SF-295): 15 µM
Growth percent at 10 μM (SF-295): − (cell growth % > 80)
TGI (CAKI-1): 28 µM
Growth percent at 10 μM (CAKI-1): + (cell growth 60 > % < 80)
GI50 (CAKI-1; Homo sapiens): 13 µM
CC50 (CAKI-1; [1]): 58 µM
GI50 (SW-620; Homo sapiens): 4 µM
CC50 (SW-620; [1]): 45 µM
TGI (SW-620): 17 µM
Growth percent at 10 μM (SW-620): ++ (cell growth 40 > % < 60)
GI50 (NCI-H226; Homo sapiens): 19 µM
CC50 (NCI-H226; [1]): 74 µM
TGI (NCI-H226): 38 µM
Growth percent at 10 μM (NCI-H226): − (cell growth % > 80)
GI50 (NCI-H522; Homo sapiens): 15 µM
CC50 (NCI-H522; [1]): 66 µM
TGI (NCI-H522): 32 µM
Growth percent at 10 μM (NCI-H522): +++ (cell growth 20 > % < 40)
GI50 (SF-539; Homo sapiens): 11 µM
CC50 (SF-539; [1]): 50 µM
TGI (SF-539): 23 µM
Growth percent at 10 μM (SF-539): ++ (cell growth 40 > % < 60)
TGI (HOP-92): 17 µM
Growth percent at 10 μM (HOP-92): ++ (cell growth 40 > % < 60)
GI50 (HOP-92; Homo sapiens): 3 µM
CC50 (HOP-92; [1]): 47 µM
TGI (BT-549): 27 µM
Growth percent at 10 μM (BT-549): + (cell growth 60 > % < 80)
GI50 (BT-549; Homo sapiens): 13 µM
CC50 (BT-549; [1]): 56 µM
TGI (HOP-62): 22 µM
Growth percent at 10 μM (HOP-62): − (cell growth % > 80)
GI50 (HOP-62; Homo sapiens): 9 µM
CC50 (HOP-62; [1]): 52 µM
CC50 (MDA-MB-468; Homo sapiens, MDA-MB-468, read-out: LC50): 38 µM
GI50 (MDA-MB-468; Homo sapiens, MDA-MB-468 (Breast)): 3 µM
TGI (MDA-MB-468; MDA-MB-468 (Breast)): 10 µM
Growth percent at 10 μM (MDA-MB-468; MDA-MB-468 (Breast)): +++ (cell growth 20 > % < 40)
GI50 (K-562; Homo sapiens, K562): 2 µM
CC50 (K-562; Homo sapiens, K562, read-out: LC50 (the source's name)): 15 µM
TGI (K-562): 5 µM
Growth percent at 10 μM (K-562): × (cell growth 0 > % > −20)
GI50 (LOX IMVI; Homo sapiens): 4 µM
CC50 (LOX IMVI; [1]): 44 µM
TGI (LOX IMVI): 15 µM
Growth percent at 10 μM (LOX IMVI): ++ (cell growth 40 > % < 60)
